Test results: US20060141077A1, “Pest controlling composition and the use thereof” (ORGANOX AB, priority 2002, published 2006)

Experiments:
[1] = system: Rhopalosiphum padi; experiment: Olfactometer response to odour of barley plants exposed to chemicals; assay type: in vivo; conditions: treated plant vs untreated plant
Description: Exposure of barley plants to volatile chemicals was done in perspex ‘two-chamber cages’ (Pettersson et al. 1999) attached to a vacuum tank. Air was taken into the first chamber through a hole in the cage wall, passed into the second chamber and was then drawn out from the top of this cage to a vacuum tank before being vented outside the room. Plants were placed in the second chamber, and chemicals were released from microcapillary tubing which hung in the first chamber. Plants were exposed for 5 days, after which time they were removed and used in tests of aphid behaviour. Control plants grew in identical cages with empty microcapillary tubes. Responses of R. padi migrants to chemical odours were tested in a 4-way olfactometer (Pettersson, 1970), consisting of an enclosed Perspex arena (12 cm diameter) with a central chamber and four side arms. Air was drawn from the centre of the olfactometer using a water pump, establishing distinct airflow in the side arms. An odour field was established by introducing a chemical (released from a […] capillary tube, or a whole menthol crystal, weight: 0.14 g) into one of the side arms. A single adult apterous aphid was introduced into the olfactometer, and its position was recorded every 3 minutes for 30 minutes. The number of visits to the treatment arm was compared with the mean number of visits to the control arms using a paired t-test. […]

[2] = system: aphids; experiment: Test of aphid settling on exposed barley plants; assay type: in vivo; conditions: barley exposed for 3, 4 and 6 days; FIG. 3
Description: Exposure of barley plants to volatile chemicals was done in perspex ‘two-chamber cages’ (Pettersson et al. 1999) attached to a vacuum tank. Air was taken into the first chamber through a hole in the cage wall, passed into the second chamber and was then drawn out from the top of this cage to a vacuum tank before being vented outside the room. Plants were placed in the second chamber, and chemicals were released from microcapillary tubing which hung in the first chamber. […] Control plants grew in identical cages with empty microcapillary tubes. A 50 ml polystyrene tube was placed over the youngest fully developed leaf. The upper end of the tube was covered with a net and the lower end with a foam plastic plug with a slit for the leaf. To minimise mechanical damage to the test plant, a stick was used to support the tube. Ten mixed-instar apterous aphids were placed in the tube and after 2 hours the number of aphids settled (not walking) on the leaf was recorded. Occasionally aphids were able to escape from the tubes, but the results were expressed as a proportion of the number of aphids originally introduced, in case the propensity of an aphid to escape from the tube was influenced by the experimental treatment of the plant. The number of replicates (tubes) varied between experiments, but there were always equal numbers of control and treatment plants. […]

[3] = system: Rhopalosiphum padi; experiment: 4-way olfactometer, direct response to chemical odour; assay type: in vivo; conditions: R. padi; visits to treatment arm vs control arms
Procedure: (§1) Responses of R. padi migrants to chemical odours were tested in a 4-way olfactometer (Pettersson, 1970), consisting of an enclosed Perspex arena (12 cm diameter) with a central chamber and four side arms. Air was drawn from the centre of the olfactometer using a water pump, establishing distinct airflow in the side arms. An odour field was established by introducing a chemical (released from a […] capillary tube, or a whole menthol crystal, weight: 0.14 g) into one of the side arms. A single adult apterous aphid was introduced into the olfactometer, and its position was recorded every 3 minutes for 30 minutes. The number of visits to the treatment arm was compared with the mean number of visits to the control arms using a paired t-test. Experiments were repeated 16-20 times (no. individual aphids tested), with the olfactometer turned through 90° between replicates to avoid positional bias. Olfactory responses to plants exposed to chemicals were done in a similar way, except that the odour sources consisted of whole plants enclosed in two-chamber cages attached directly to the olfactometer. In each olfactometer, one treated plant was compared with one untreated plant.

[4] = system: Aphis fabae; experiment: as above; assay type: in vivo; conditions: FIG. 1
[5] = system: several aphid species; experiment: Repellency to aphids (conclusions); assay type: in vivo; conditions: conclusion statement
Procedure: as §1

[6] = system: Cavariella aegopodi; experiment: 4-way olfactometer, direct response to chemical odour; assay type: in vivo; conditions: FIG. 1
[7] = cited from earlier work
[8] = orally in rabbits; cited from earlier work
[9] = system: aphids; conditions: applied by spraying in cereal plots, pilot experiment; cited from earlier work
[10] = human adults; cited from earlier work

With `CC12CCC(CC1)C(C)(C)O2` [1,8-cineole, 1,3,3-trimethyl-2-oxabicyclo[2.2.2.]octane] the “response to odour of plants exposed to the chemical” value [1] was “less attractive”, the “aphid settling on plants exposed to the substance” value [2] was “settled significantly less” and the “response to chemical odour in the olfactometer” value (“response to chemical odour” below) [3] was “did not respond”.
With `CC1CCC(C(C)C)C(O)C1` (stereo not shown) [menthol, 5-methyl-2-(1-methylethyl)-cyclohexanol] the “response to odour of plants exposed to the chemical” value [1] was “repelled”, the “response to chemical odour” value [4] was “strongly repelled” and the “repellency for several aphid species” value [5] was “strong repellents”. For the same compound, the “response to chemical odour” value [6] was “strongly repelled” and the “response to chemical odour” value [3] was “strongly repelled”.
In the case of `COC(=O)c1ccccc1O` [methyl salicylate, 2-hydroxybenzoic acid methyl ester], the solubility in water [7] is given as “slightly soluble”, the LD50 [8] is given as 2800 mg/kg and the “repellency for several aphid species” value [5] is given as “strong repellents”. For the same compound, the “aphid settling in the field” value [9] was “significantly reduced aphid settling” and the average lethal dose [10] was 30 mL.
